{"source": "patent US20170252442A1", "about": "“PHOTOHEXER COMPOUNDS AND PHARMACEUTICAL COMPOSITION AND USE THEREOF” (RAINBOW PHARMATECH LLC, priority 2014, published 2017)", "key": {"SGC7901 cells": {"tested_on": "SGC7901 cells", "assay": "MTT assay, photodynamic therapy on SGC7901 cells", "type": "cell-based, human", "text": "(§1) The cells in logarithmic growth phase were collected and inoculated on 24-well culture plates. When reaching 70%-80% confluence, cells were divided randomly into the following groups: control (the parallel control group without photosensitizer and irradiation), irradiation (irradiation treatment alone without photosensitizer); (photosensitizer treatment alone without irradiation), photodynamic treatment (treatment by photosensitizer in combination with irradiation). For the photosensitizer alone treatment group and photodynamic treatment group, an appropriate amount of Photohexer-1 (P-1) or Photohexer-2 (P-2) was respectively added away from light to give a final concentration of 0.8, 1.6, 3.2, 6.4 μM. Each group set 3 replicates. Cells were incubated with the active agent, different treatments were carried out according to the grouping. […] After treatment and digestion of each group of cells, it was inoculated into a 96-well plate at 100 μL/well, and four wells were set for each treatment. MTT assay was performed after 24 h from inoculation: 20 μL MTT solution was added to each well under the condition away from light, and the culture was continued for 4 hours. 150 μL DMSO was added to each well after discarding the supernatant. After 15 min of dissolution, the absorbance value (OD value) was measured using a microplate reader and the relative survival rate of cells was calculated according to the following formula: […]"}, "SW-620 cells": {"tested_on": "SW-620 cells", "assay": "MTT assay, photodynamic therapy on SW-620 cells", "type": "cell-based, human", "text": "as §1"}, "Caco2 cells": {"tested_on": "Caco2 cells", "assay": "MTT assay, photodynamic therapy on Caco2 cells", "type": "cell-based, human", "text": "as §1"}, "MDA-MB-231 cells": {"tested_on": "MDA-MB-231 cells", "assay": "MTT assay, photodynamic therapy on MDA-MB-231 cells", "type": "cell-based, human", "text": "as §1"}, "[1]": {"assay": "Storage stability determination", "type": "physicochemical", "settings": "3 months of storage in dark at 2-4", "experimental": "The storage stability of Photohexer-1 and Photohexer-2 was determined by conventional methods in the art."}, "the cell lines": {"tested_on": "the cell lines", "assay": "MTT assay, summary over the cell lines (photosensitizer alone)", "type": "cell-based", "settings": "without light irradiation; selected drug concentration range (0.8-6.4 μM)", "text": "The cells in logarithmic growth phase were collected and inoculated on 24-well culture plates. When reaching 70%-80% confluence, cells were divided randomly into the following groups: control (the parallel control group without photosensitizer and irradiation), irradiation (irradiation treatment alone without photosensitizer); (photosensitizer treatment alone without irradiation), photodynamic treatment (treatment by photosensitizer in combination with irradiation). For the photosensitizer alone treatment group and photodynamic treatment group, an appropriate amount of Photohexer-1 (P-1) or Photohexer-2 (P-2) was respectively added away from light to give a final concentration of 0.8, 1.6, 3.2, 6.4 μM. Each group set 3 replicates. Cells were incubated with the active agent, different treatments were carried out according to the grouping. Three different light intensities were selected for the photodynamic treatment group, which were 2.6, 5.2 and 12.4 J/cm^2, respectively. After treatment and digestion of each group of cells, it was inoculated into a 96-well plate at 100 μL/well, and four wells were set for each treatment. […] After 15 min of dissolution, the absorbance value (OD value) was measured using a microplate reader and the relative survival rate of cells was calculated according to the following formula: […]"}, "[2]": {"settings": "0.8 μM alone treatment, without irradiation"}, "[3]": {"settings": "0.8 μM combined with 2.6 J/cm^2 light irradiation"}, "[4]": {"settings": "0.8 μM combined with 5.2 J/cm^2 light irradiation"}, "[5]": {"settings": "0.8 μM combined with 10.4 J/cm^2 light irradiation"}, "[6]": {"settings": "1.6 μM alone treatment, without irradiation"}, "[7]": {"settings": "1.6 μM combined with 2.6 J/cm^2 light irradiation"}, "[8]": {"settings": "1.6 μM combined with 5.2 J/cm^2 light irradiation"}, "[9]": {"settings": "1.6 μM combined with 10.4 J/cm^2 light irradiation"}, "[10]": {"settings": "3.2 μM alone treatment, without irradiation"}, "[11]": {"settings": "3.2 μM combined with 2.6 J/cm^2 light irradiation"}, "[12]": {"settings": "3.2 μM combined with 5.2 J/cm^2 light irradiation"}, "[13]": {"settings": "3.2 μM combined with 10.4 J/cm^2 light irradiation"}, "[14]": {"settings": "6.4 μM alone treatment, without irradiation"}, "[15]": {"settings": "6.4 μM combined with 2.6 J/cm^2 light irradiation"}, "[16]": {"settings": "6.4 μM combined with 5.2 J/cm^2 light irradiation"}, "[17]": {"settings": "6.4 μM combined with 10.4 J/cm^2 light irradiation"}}}
{"smiles": "C=CC1=C(C)c2cc3[nH]c(cc4nc(cc5[nH]c(cc1n2)c(C)c5CCC(=O)[O-])C(CCC(=O)[O-])=C4C)c(C)c3C(C)OCCCCCC.[Na+].[Na+]", "note": "(stereo not shown) [Photohexer P-1, 2-(1-hexyloxyethyl)-6,7-bis(propionatesodium)-1,3,5,8-tetramethyl-4-vinylporphyrin]", "values": [{"measurement": "Cell survival rate", "setting": "SGC7901 cells; [2]", "result": "100.39 ± 0.20", "unit": "%"}, {"measurement": "Cell survival rate", "setting": "SGC7901 cells; [3]", "result": "90.25 ± 2.16", "unit": "%"}, {"measurement": "Cell survival rate", "setting": "SGC7901 cells; [4]", "result": "92.41 ± 0.63", "unit": "%"}, {"measurement": "Cell survival rate", "setting": "SGC7901 cells; [5]", "result": "92.26 ± 1.16", "unit": "%"}, {"measurement": "Cell survival rate", "setting": "SGC7901 cells; [6]", "result": "99.22 ± 1.37", "unit": "%"}, {"measurement": "Cell survival rate", "setting": "SGC7901 cells; [7]", "result": "91.19 ± 2.89", "unit": "%"}, {"measurement": "Cell survival rate", "setting": "SGC7901 cells; [8]", "result": "92.29 ± 0.15", "unit": "%"}, {"measurement": "Cell survival rate", "setting": "SGC7901 cells; [9]", "result": "89.21 ± 0.24", "unit": "%"}, {"measurement": "Cell survival rate", "setting": "SGC7901 cells; [10]", "result": "95.80 ± 1.59", "unit": "%"}, {"measurement": "Cell survival rate", "setting": "SGC7901 cells; [11]", "result": "88.70 ± 1.24", "unit": "%"}, {"measurement": "Cell survival rate", "setting": "SGC7901 cells; [12]", "result": "85.49 ± 0.99", "unit": "%"}, {"measurement": "Cell survival rate", "setting": "SGC7901 cells; [13]", "result": "77.02 ± 0.04", "unit": "%"}, {"measurement": "Cell survival rate", "setting": "SGC7901 cells; [14]", "result": "89.77 ± 4.99", "unit": "%"}, {"measurement": "Cell survival rate", "setting": "SGC7901 cells; [15]", "result": "77.76 ± 0.22", "unit": "%"}, {"measurement": "Cell survival rate", "setting": "SGC7901 cells; [16]", "result": "69.94 ± 0.56", "unit": "%"}, {"measurement": "Cell survival rate", "setting": "SGC7901 cells; [17]", "result": "38.34 ± 0.13", "unit": "%"}, {"measurement": "killing effect of photodynamic therapy", "setting": "SGC7901 cells; drug-dose and light-intensity dependent", "result": "obvious killing effect"}, {"measurement": "Cell survival rate", "setting": "SW-620 cells; [2]", "result": "101.33 ± 3.20", "unit": "%"}, {"measurement": "Cell survival rate", "setting": "SW-620 cells; [3]", "result": "100.74 ± 3.46", "unit": "%"}, {"measurement": "Cell survival rate", "setting": "SW-620 cells; [4]", "result": "99.53 ± 3.71", "unit": "%"}, {"measurement": "Cell survival rate", "setting": "SW-620 cells; [5]", "result": "94.65 ± 4.04", "unit": "%"}, {"measurement": "Cell survival rate", "setting": "SW-620 cells; [6]", "result": "100.99 ± 2.47", "unit": "%"}, {"measurement": "Cell survival rate", "setting": "SW-620 cells; [7]", "result": "96.64 ± 2.79", "unit": "%"}, {"measurement": "Cell survival rate", "setting": "SW-620 cells; [8]", "result": "91.84 ± 2.97", "unit": "%"}, {"measurement": "Cell survival rate", "setting": "SW-620 cells; [9]", "result": "87.51 ± 3.16", "unit": "%"}, {"measurement": "Cell survival rate", "setting": "SW-620 cells; [10]", "result": "98.23 ± 1.59", "unit": "%"}, {"measurement": "Cell survival rate", "setting": "SW-620 cells; [11]", "result": "91.39 ± 2.18", "unit": "%"}, {"measurement": "Cell survival rate", "setting": "SW-620 cells; [12]", "result": "87.50 ± 1.69", "unit": "%"}, {"measurement": "Cell survival rate", "setting": "SW-620 cells; [13]", "result": "82.58 ± 2.31", "unit": "%"}, {"measurement": "Cell survival rate", "setting": "SW-620 cells; [14]", "result": "94.83 ± 1.09", "unit": "%"}, {"measurement": "Cell survival rate", "setting": "SW-620 cells; [15]", "result": "86.70 ± 1.07", "unit": "%"}, {"measurement": "Cell survival rate", "setting": "SW-620 cells; [16]", "result": "75.53 ± 1.03", "unit": "%"}, {"measurement": "Cell survival rate", "setting": "SW-620 cells; [17]", "result": "68.33 ± 1.11", "unit": "%"}, {"measurement": "Cell survival rate", "setting": "Caco2 cells; [2]", "result": "99.34 ± 3.40", "unit": "%"}, {"measurement": "Cell survival rate", "setting": "Caco2 cells; [3]", "result": "95.31 ± 3.86", "unit": "%"}, {"measurement": "Cell survival rate", "setting": "Caco2 cells; [4]", "result": "93.10 ± 3.96", "unit": "%"}, {"measurement": "Cell survival rate", "setting": "Caco2 cells; [5]", "result": "88.18 ± 4.24", "unit": "%"}, {"measurement": "Cell survival rate", "setting": "Caco2 cells; [6]", "result": "97.36 ± 2.42", "unit": "%"}, {"measurement": "Cell survival rate", "setting": "Caco2 cells; [7]", "result": "91.33 ± 2.69", "unit": "%"}, {"measurement": "Cell survival rate", "setting": "Caco2 cells; [8]", "result": "89.01 ± 2.88", "unit": "%"}, {"measurement": "Cell survival rate", "setting": "Caco2 cells; [9]", "result": "87.63 ± 3.49", "unit": "%"}, {"measurement": "Cell survival rate", "setting": "Caco2 cells; [10]", "result": "95.34 ± 1.67", "unit": "%"}, {"measurement": "Cell survival rate", "setting": "Caco2 cells; [11]", "result": "89.49 ± 2.15", "unit": "%"}, {"measurement": "Cell survival rate", "setting": "Caco2 cells; [12]", "result": "87.46 ± 1.67", "unit": "%"}, {"measurement": "Cell survival rate", "setting": "Caco2 cells; [13]", "result": "84.32 ± 2.76", "unit": "%"}, {"measurement": "Cell survival rate", "setting": "Caco2 cells; [14]", "result": "83.33 ± 1.24", "unit": "%"}, {"measurement": "Cell survival rate", "setting": "Caco2 cells; [15]", "result": "81.65 ± 1.07", "unit": "%"}, {"measurement": "Cell survival rate", "setting": "Caco2 cells; [16]", "result": "74.26 ± 1.14", "unit": "%"}, {"measurement": "Cell survival rate", "setting": "Caco2 cells; [17]", "result": "66.34 ± 1.17", "unit": "%"}, {"measurement": "Cell survival rate", "setting": "MDA-MB-231 cells; [2]", "result": "97.82 ± 3.12", "unit": "%"}, {"measurement": "Cell survival rate", "setting": "MDA-MB-231 cells; [3]", "result": "93.29 ± 3.66", "unit": "%"}, {"measurement": "Cell survival rate", "setting": "MDA-MB-231 cells; [4]", "result": "90.67 ± 4.08", "unit": "%"}, {"measurement": "Cell survival rate", "setting": "MDA-MB-231 cells; [5]", "result": "88.23 ± 4.09", "unit": "%"}, {"measurement": "Cell survival rate", "setting": "MDA-MB-231 cells; [6]", "result": "91.07 ± 2.02", "unit": "%"}, {"measurement": "Cell survival rate", "setting": "MDA-MB-231 cells; [7]", "result": "81.63 ± 2.87", "unit": "%"}, {"measurement": "Cell survival rate", "setting": "MDA-MB-231 cells; [8]", "result": "76.33 ± 2.91", "unit": "%"}, {"measurement": "Cell survival rate", "setting": "MDA-MB-231 cells; [9]", "result": "71.13 ± 3.79", "unit": "%"}, {"measurement": "Cell survival rate", "setting": "MDA-MB-231 cells; [10]", "result": "75.52 ± 1.07", "unit": "%"}, {"measurement": "Cell survival rate", "setting": "MDA-MB-231 cells; [11]", "result": "70.24 ± 2.03", "unit": "%"}, {"measurement": "Cell survival rate", "setting": "MDA-MB-231 cells; [12]", "result": "68.08 ± 1.43", "unit": "%"}, {"measurement": "Cell survival rate", "setting": "MDA-MB-231 cells; [13]", "result": "61.29 ± 2.27", "unit": "%"}, {"measurement": "Cell survival rate", "setting": "MDA-MB-231 cells; [14]", "result": "70.10 ± 0.99", "unit": "%"}, {"measurement": "Cell survival rate", "setting": "MDA-MB-231 cells; [15]", "result": "62.22 ± 1.04", "unit": "%"}, {"measurement": "Cell survival rate", "setting": "MDA-MB-231 cells; [16]", "result": "64.88 ± 1.07", "unit": "%"}, {"measurement": "Cell survival rate", "setting": "MDA-MB-231 cells; [17]", "result": "56.27 ± 1.06", "unit": "%"}, {"measurement": "storage stability (content change by HPLC test)", "setting": "[1]", "result": "no content change"}, {"measurement": "cytotoxicity of alone treatment", "setting": "the cell lines", "result": "did not produce significant cytotoxicity"}]}
